Test system: field poppy (Papaver rhoeas)
Assay: Test C plant response
Format: in vivo
Conditions: Preemergence, scale 0 to 100

In the case of `Cc1ccccc1-n1c(-c2ccccc2)ncc(C(=O)C2=C(O)CCCC2=O)c1=O` [Compound 12], the “Plant response rating: Field Poppy” value (62 g ai/ha) is reported as 98, the “Plant response rating: Field Poppy” value (125 g ai/ha) is reported as 98 and the “Plant response rating: Field Poppy” value (16 g ai/ha) is reported as 50. The “Plant response rating: Field Poppy” value (31 g ai/ha) was 80.

— patent US8952024B2, “Herbicidal pyrimidone derivatives” (E I du Pont de Nemours and Company, priority 2009, dated 2015)
